“Also recorded” adds a separate entry of the source. One block for each compound: values may come before it.
Assays:
GalNAc-T3 = molecular target: T1, GalNAc-T3 (Homo sapiens, UniProt Q14435); test: GalNAc-T3 transferase activities with UDP-GalNAc or UDP-Gal donor (EA2 acceptor, peptide panel); assay type: biochemical; settings: UDP-Gal donor; printed Muc2 substrate
T1 construct: Soluble, secreted expression constructs of human GalNAc-transferases GalNAc-T1, -T2, -T3, -T4, -T6, -T7, and -T11; made in house; host or cells: insect cells (baculovirus)
T1 sequence (Q14435 38-633 limits assumed): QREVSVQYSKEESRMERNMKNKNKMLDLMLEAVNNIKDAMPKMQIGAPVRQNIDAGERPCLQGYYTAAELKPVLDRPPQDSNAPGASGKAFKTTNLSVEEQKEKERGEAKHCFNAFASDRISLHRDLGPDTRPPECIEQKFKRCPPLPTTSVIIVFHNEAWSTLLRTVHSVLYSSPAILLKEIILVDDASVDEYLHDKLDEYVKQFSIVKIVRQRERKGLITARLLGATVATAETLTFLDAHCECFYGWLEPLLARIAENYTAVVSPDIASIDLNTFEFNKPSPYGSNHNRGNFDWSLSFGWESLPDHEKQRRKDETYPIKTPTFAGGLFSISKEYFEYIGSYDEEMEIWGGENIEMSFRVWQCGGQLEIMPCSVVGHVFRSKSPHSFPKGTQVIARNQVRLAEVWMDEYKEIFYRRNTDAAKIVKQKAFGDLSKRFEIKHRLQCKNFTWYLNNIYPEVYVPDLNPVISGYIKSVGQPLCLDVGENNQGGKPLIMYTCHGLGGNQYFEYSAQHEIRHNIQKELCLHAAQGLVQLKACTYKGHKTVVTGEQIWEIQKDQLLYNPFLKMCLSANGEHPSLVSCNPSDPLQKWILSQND
Description: (§1) Standard reaction mixtures (50 μl final volume) contained 25 mM cocadylate (pH 7.4), 10 mM MnCl2, 0.25% Triton X-100, 200 μM UDP-[^14C]-GalNAc (2,000 cpm/nmol) (Amersham), 200-500 μM acceptor peptides. Products were quantified by scintillation counting after chromatography on Dowex-1, octadecyl silica cartridges (Bakerbond), or HPLC (PC3.2/3 or mRPC C2/C18 SC2.1/10 Pharmacia, Smart System). […] Glycopeptides were purified on Supelclean LC-18 columns (1 ml, Supelco), and the number of GalNAc residues incorporated evaluated by MALDI-TOF mass spectrometry. The enzyme sources used were semipurified as previously described by successive sequential ion-exchange chromatographies on Amberlite (IRA95, Sigma) or DEAE Sephacel (Pharmacia), S-Sepharose Fast Flow (Pharmacia), and Mini-S™ (PC 3.2/3, Pharmacia) using the Smart System (Pharmacia) (28). Secreted GalNAc-T4 was obtained from a stably transfected CHO line (CHO/GalNA-T4/21A) (8) grown in roller bottles in HAMS F12 supplemented with 10% Fetal Bovine Serum. The experiments illustrated in FIG. 1 was performed with recombinant secreted GalNAc-T4 obtained from a stably transfected CHO line (8). Experiments illustrated in FIGS. 2 and 3 were performed with secreted GalNAc-T4 expressed in High Five cells grown in serum-free medium (8). Structural analysis of glycopeptides were performed by a combination of PFPA (pentafluoropropionic acid) hydrolysis and MALDI-TOF mass spectrometry as previously described (40). Secreted GalNAc-T7 was obtained from infected High Five™ cells grown in serum-free medium (Invitrogen) in upright roller bottles shaken 140 rpm in waterbaths at 27° C. GalNAc-T7 was not purified by Mini-S as the yields from cationic chromatography were low due to its low pI (6.4).
(§2) Galactosyl transferring activities of GalNAc-T1, -T2, and -T3, were assayed with a panel of acceptor peptides in standard reaction mixtures containing 100 μM UDP-Gal instead of UDP-GalNAc. […] Further, analysis was performed with 10 mM α-D-GalNAc-1-benzyl, αGlcNAc-benzyl, and fully occupied GalNAc-glycopeptide, GalNAC6TAP25, at 5 mM.

GalNAc-T4 [1] = molecular target: T2, GalNAc-T4 (Homo sapiens, UniProt Q8N4A0); test: Inhibition of glycosylation dependent (GalNAc-glycopeptide) activity of GalNAc-T4, MALDI-TOF time-course; assay type: biochemical; settings: […] free sugar
T2 construct: using the GalNAc-T4-sol construct that encodes residues 32-578 inserted into pT7T3U19; made in house; host or cells: High Five insect cells (baculovirus, pAcGP67)
T2 sequence (Q8N4A0 32-578): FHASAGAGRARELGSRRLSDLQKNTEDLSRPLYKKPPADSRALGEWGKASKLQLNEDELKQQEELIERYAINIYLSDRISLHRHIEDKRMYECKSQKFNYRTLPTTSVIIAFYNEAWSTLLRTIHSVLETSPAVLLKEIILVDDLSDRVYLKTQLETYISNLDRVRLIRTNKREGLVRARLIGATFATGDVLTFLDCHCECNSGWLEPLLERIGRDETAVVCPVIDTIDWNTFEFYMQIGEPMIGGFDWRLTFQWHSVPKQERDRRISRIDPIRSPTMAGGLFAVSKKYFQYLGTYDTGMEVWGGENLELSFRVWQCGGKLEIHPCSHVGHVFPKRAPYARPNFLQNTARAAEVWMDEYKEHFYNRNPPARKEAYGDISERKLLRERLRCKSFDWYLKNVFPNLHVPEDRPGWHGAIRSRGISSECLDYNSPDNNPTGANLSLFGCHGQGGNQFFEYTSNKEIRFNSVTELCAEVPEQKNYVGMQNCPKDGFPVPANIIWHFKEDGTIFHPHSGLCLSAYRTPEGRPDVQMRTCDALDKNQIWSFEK
Description: (§3) MALDI-TOF time-course in terminal reactions were performed in reactions of 25 μl containing 2.5 nmol acceptor (glyco)peptide, 40 nmol UDP-GalNAc, and 0.4 μg GalNAc-T4. Sampling of reactions (1 μl) were purified by nano-scale reversed-phase chromatography (Poros R3, PerSeptive Biosystem) and applied directly to the probe with matrix (41). The amount of GalNAc-transferase added was adjusted so that the reaction with the appropriate peptide was near completion in six hours. Reactions were incubated at 37° C. in a shaker bath. At times 0, 2 hours, and 16 hours a 1 μl aliquot was taken and purified. Mass spectra were acquired on either Voyager-DE mass spectrometer equipped with delayed extraction (Perseptive Biosystem Inc.). The matrix used was 2,5-dihydroxybenzoic acid (10 mg/ml, Hewlett-Packard) dissolved in a 2:1 mixture of 0.1% trifluoroacetic acid in 30% aqueous acetonitrile (Rathburn Ltd.).
Quantification of purified proteins was done by Coomassie stained SDS-PAGE and titration of immunoreactivity with the monoclonal antibody, UH6(4G2) (8). […] Wild-type GalNAc-T4 and mutant GalNAc-T4, GalNAc-T4^459H, were analysed with unglycosylated peptides (represented by PSGL-1) or GalNAc glycosylated glycopeptides (represented by GalNAc3TAP25V21) in reactions of 25 μl containing 2.5 nmol acceptor (glyco)peptide, 40 nmol UDP-GalNAc, and 0.4 μg GalNAc-T4. Time-course assays were motioned by MALDI-TOF. Sampling of reactions (1 μl) were purified by nano-scale reversed-phase chromatography (Poros R3, PerSeptive Biosystem) and applied directly to the probe with matrix. Evaluation of inhibition of the glycopeptide specificity of wild-type GalNAc-T4 with free sugars was performed to establish if the lectin domain recognized carbohydrate. […] Further, analysis was performed with 10 mM α-D-GalNAc-1-benzyl, αGlcNAc-benzyl, and fully occupied GalNAc-glycopeptide, GalNAc6TAP25, at 5 mM.

GalNAc-T4 [2] = test: Glycosylation independent activity of GalNAc-T4 with naked peptides, MALDI-TOF; assay type: biochemical, human; settings: GalNAc-T4 459D or 459H
Description: as §3
Quantification of purified proteins was done by Coomassie stained SDS-PAGE and titration of immunoreactivity with the monoclonal antibody, UH6(4G2) (8). […] Wild-type GalNAc-T4 and mutant GalNAc-T4, GalNAc-T4^459H, were analysed with unglycosylated peptides (represented by PSGL-1) or GalNAc glycosylated glycopeptides (represented by GalNAc3TAP25V21) in reactions of 25 μl containing 2.5 nmol acceptor (glyco)peptide, 40 nmol UDP-GalNAc, and 0.4 μg GalNAc-T4. […]

GalNAc-T2 = molecular target: T3, GalNAc-T2 (Homo sapiens, UniProt Q10471); test: GalNAc-T2 transferase activities with UDP-GalNAc or UDP-Gal donor (Muc2 acceptor, peptide panel); assay type: biochemical; settings: UDP-Gal donor; Muc2 substrate
T3 construct: Soluble, secreted expression constructs of human GalNAc-transferases GalNAc-T1, -T2, -T3, -T4, -T6, -T7, and -T11; made in house; host or cells: insect cells (baculovirus)
T3 sequence (Q10471 52-571 limits assumed): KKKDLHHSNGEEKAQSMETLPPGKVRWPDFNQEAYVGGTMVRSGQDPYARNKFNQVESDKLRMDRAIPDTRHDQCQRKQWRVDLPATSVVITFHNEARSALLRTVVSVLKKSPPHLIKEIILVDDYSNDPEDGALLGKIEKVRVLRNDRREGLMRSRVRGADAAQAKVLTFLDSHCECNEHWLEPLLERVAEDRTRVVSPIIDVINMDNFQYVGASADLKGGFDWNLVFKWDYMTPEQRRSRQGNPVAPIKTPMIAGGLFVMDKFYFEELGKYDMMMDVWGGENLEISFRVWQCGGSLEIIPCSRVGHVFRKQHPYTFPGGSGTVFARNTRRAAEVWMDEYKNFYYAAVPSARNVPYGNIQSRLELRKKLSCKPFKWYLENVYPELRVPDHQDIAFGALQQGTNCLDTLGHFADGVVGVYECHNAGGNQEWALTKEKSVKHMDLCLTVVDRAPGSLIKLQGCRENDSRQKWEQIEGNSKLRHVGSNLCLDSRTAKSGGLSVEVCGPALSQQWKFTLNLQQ
Description: as §1, §2

[3] = test system: CHOldlD/MUC1F-clone2 cells; test: MUC1 expression in cell lysates, immunoprecipitation and SDS-PAGE western blot; assay type: cell-based, Chinese Hamster; settings: 2 mM, 36 hours
Description: We next analysed the expression of MUC1 produced by CHOldlD/MUC1F-clone2 cells by SDS-PAGE western analysis. […] Cells were further treated with 2 mM GalNAcα-benzyl, GlcNAcα-benzyl or no inhibitor. Cells were washed and lysed at 24 or 48 hours and the lysates subjected to immunoprecipitation with monoclonal antibody HMFG2, which broadly recognize MUC1 glycoforms. Immunoprecipitates were analysed by SDS-PAGE and western blot using HMFG2 antibody to detect MUC1 expression. […] In striking contrast, treatment with GalNAcα-benzyl had significant effect after 48 hours. […] This indicates some heterogeneity in glycosylation.
As shown in Examples 8 and 9, polypeptide GalNAc-transferases contain lectin domains with binding properties for GalNAc-peptides including GalNAc-MUC1 peptides. […] GalNAcβ-benzyl, the β-anomeric configuration of GalNAc-benzyl (there is a β linkage between the N-acetylgalactosamine and the benzyl ring), was custom synthesized by Alberta Research Council (Canada), and its structure was confirmed by mass spectrometry and ^1H-NMR. […] Cells were then treated with 2 mM GalNAcα-benzyl, GalNAcβ-benzyl, or GlcNAcα-benzyl as control (GlcNAcα-benzyl was shown in Example 10 to have no effect). Cells were washed and lysed as described above after 36 hours and the lysates subjected to immunoprecipitation with anti-MUC1 monoclonal antibodies HMFG2 or 5E5. […] FIG. 17 illustrates the same experiments as in FIG. 16 except that the detection antibody is 5E5 and only Tn and STn MUC1 glycoforms are visualised.

[4] = test system: wild type CHO/MUC1sol-cloneC4; test: Secretion of MUC1, western blot of medium; assay type: cell-based, Chinese Hamster; settings: 1-2 mM; compared to control treated or non-treated cells
Description: In order to characterize the secreted MUC1 product SDS-PAGE western blot analysis of harvested culture medium of confluent cultures were performed. Ten to twenty μL culture supernatant was analysed directly or treated with 0.1 U/mL neuraminidase (C. Perfringes VI, Sigma) for 30-60 min at 37° C. Samples were mixed with SDS sample buffer, reduced with DTT, and run on precast 4-20% gels (Biorad). As shown in FIG. 9 anti-MUC1 antibodies detected two forms of MUC1 in the medium; a low molecular weight form migrating as 130-140 kd corresponding to unglycosylated product, and a high molecular weight form migrating above 250 kd. The high molecular weight form was sensitive to neuraminidase treatment as evidenced by a marked shift and retardation in migration. […]
Because GalNAcα-benzyl exerts separate effects on O-glycan processing and mucin expression, the use of the novel selective inhibitor of mucin expression, GalNAcβ-benzyl, allow analysis of mucin expression and secretion in different cell line models. […] Most human adenocarcinoma cell lines express and secret mucins and analysis with antibodies to detect protein expression or probes to detect mRNA can reveal the types and quantities of mucins. […] The inhibitory effect on mucin secretion can be quantified by a number of assays known to the skilled in the art including western blot, ELISA, gelfiltration, immunocapture, and other assays.

GalNAc-T7 = molecular target: T4, GalNAc-T7 (Homo sapiens, UniProt Q86SF2); test: Inhibition of GalNAc-T7 activity with GalNAc2-3EA2 substrate; assay type: biochemical; settings: 5 mM
T4 construct: made in house; host or cells: High Five insect cells (baculovirus)
T4 sequence (Q86SF2 30-657 limits assumed): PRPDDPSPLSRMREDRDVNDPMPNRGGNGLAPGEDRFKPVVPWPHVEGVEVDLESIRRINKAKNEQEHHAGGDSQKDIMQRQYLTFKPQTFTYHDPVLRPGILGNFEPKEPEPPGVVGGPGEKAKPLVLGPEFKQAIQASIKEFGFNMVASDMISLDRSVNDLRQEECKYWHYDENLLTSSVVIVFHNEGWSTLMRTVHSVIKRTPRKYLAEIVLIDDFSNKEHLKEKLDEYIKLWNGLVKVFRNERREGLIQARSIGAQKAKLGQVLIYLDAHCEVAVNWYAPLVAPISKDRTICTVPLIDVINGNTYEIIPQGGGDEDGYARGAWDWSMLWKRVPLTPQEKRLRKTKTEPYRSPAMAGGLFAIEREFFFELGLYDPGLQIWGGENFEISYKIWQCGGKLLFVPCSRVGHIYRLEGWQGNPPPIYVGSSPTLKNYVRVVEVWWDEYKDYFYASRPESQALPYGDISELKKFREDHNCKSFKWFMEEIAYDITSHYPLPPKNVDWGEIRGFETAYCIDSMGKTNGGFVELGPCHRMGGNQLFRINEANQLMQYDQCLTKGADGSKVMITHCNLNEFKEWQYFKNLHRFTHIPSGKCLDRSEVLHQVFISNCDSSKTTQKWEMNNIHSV
Description: as §1
GalNAc-T7 activity was analysed with GalNAc glycosylated glycopeptides (represented by GalNAc2-3EA2 (7)) in reactions of 25 μl containing 2.5 nmol acceptor (glyco)peptide, 40 nmol UDP-GalNAc, and purified GalNAc-T7. […]

Inhibition of galactosyltransferase activity of GalNAc-T3 (GalNAc-T3): selectively inhibited | Inhibition of glycosylation dependent specificity of GalNAc-T4 (GalNAc-T4 [1]): almost completely inhibited | Inhibition of galactosyltransferase activity of GalNAc-T2 (GalNAc-T2): selectively inhibited
SMILES: CC(=O)N[C@H]1C(O)O[C@H](CO)[C@H](O)[C@@H]1O (stereo partly shown) [GalNAc, N-acetylgalactosamine]
Effect on glycosylation independent activities of GalNAc-T4 (GalNAc-T4 [2]): no effect

SMILES: CC(=O)N[C@H]1[C@H](OCc2ccccc2)O[C@H](CO)[C@H](O)[C@@H]1O [GalNAcβ-benzyl, benzyl-2-acetamido-2-deoxy-β-D-galactopyranoside galactosamine]
MUC1 expression ([3]; blot 5E5, cells grown in GalNAc): strong inhibition; also recorded: same or better reduction in MUC1 expression | MUC1 expression ([3]; blot HMFG2, grown in GalNAc or Gal and GalNAc): same or better reduction in MUC1 expression | SDS-PAGE migration of MUC1 (O-glycosylation) ([3]; cells grown in Gal and GalNAc): no change in the migration of MUC1 | Secreted MUC1 in medium [4]: inhibition of secreted MUC1

Inhibition of GalNAc-T7 activity with GalNAc2-3EA2 (GalNAc-T7): significantly inhibited
SMILES: CC(=O)N[C@H]1[C@@H](OCc2ccccc2)O[C@H](CO)[C@H](O)[C@@H]1O[C@@H]1O[C@H](CO)[C@H](O)[C@H](O)[C@H]1O [Galβ1-3GalNAcα1-bz]

Inhibition of GalNAc-T7 activity with GalNAc2-3EA2 (GalNAc-T7): significantly inhibited
SMILES: OC[C@H]1O[C@@H](OCc2ccccc2)[C@H](O)[C@@H](O)[C@H]1O [bz-βGal]
